For data set [1] the following is noted: cited from earlier work.
For data set [2] the following is noted: sodium salt / reconstituted state-of-the-art solution, cited from earlier work.
In another data set the test system is cytomegalovirus. The note with it: drug derived from acyclovir, U.S. Pat. No. 4,355,032; cited from earlier work.
Data set [3] can be described thus: pH and appearance of ganciclovir solutions. In kind it is physicochemical. The note with it: glucose solution, formulation tests. The text has this: The earlier tests were tried with the 9-((1,3-dihydroxypropan-2-iloxy)methyl)-2-amine-1-purin-6(9H)-one molecule used for preparing the lyophilized product.
Stabilizing the molecule in this pH, allowed lowering hazards during manipulation, once the previous solution was too much alkaline (pH=11), and was too much irritating after its reconstitution being not possible to be in contact with the skin, mucous membranes and eyes. Using appropriate glasses and gloves were necessary when manipulating this substance.
Yes, but can cause irritation in the site of the injection due the elevate pH of the injectable solution (pH˜11). It also can be done by subcutaneous administration, but with the same local irritation risk.
Because the resulting solution is strongly alkaline (pH=11) and irritating after its reconstitution, one must avoid the contact with the skin, mucous membranes and the eyes. Using glasses and gloves are necessary when manipulating it.

Where a name gives a salt, the structure may show the parent alone. Read-outs that look alike come from different tables or passages of the source.

As for `Nc1nc(O)c2ncn(COC(CO)CO)c2n1` [Ganciclovir sodium salt, 9-((1,3-dihydroxypropan-2-iloxy)methyl)-2-amine-1H-purin-6(9H)-one sodium salt], the “physically and chemically stable (time)” value in data set [1] (reconstituted with sterile water for injection, diluted with sodium chloride 0.9% in PVC bags, refrigeration at 5° C.) was 14 days. Also, the pH of solution is 11 in data set [2] (listed as sodium Ganciclovir, sodium salt) and “about 11” in data set [2] (sodium salt).

Take `Nc1nc2c(ncn2COC(CO)CO)c(=O)[nH]1` [Ganciclovir, 9-((1,3-dihydroxypropan-2-iloxy)methyl)-2-amine-1H-purin-6(9H)-one]: the “Stability (time)” value in data set [1] (room temperature, reconstituted inside its own vial) was 12 h. Further, in the data set with cytomegalovirus, the “activity against cytomegalovirus, times greater” value was 100 times. The pH of solution in data set [2] is 11. Also, the appearance of solution entry in data set [3] was “yellowish and oxidized solution”.
